Among the data in patent US20260109699A1, “AZOLE DERIVATIVES AS SHP2 INHIBITORS” (IRBM S.P.A., priority 2022, published 2026) are IC50 values, retold here.

Broadly, the IC50 is the concentration that inhibits the measured activity by half.

Where only a bound is given, the exact number is not on record here.

The target in test [1] is T1, SHP-2 enzyme (Met1-Leu525), SHP2wt (Homo sapiens, UniProt Q06124).
T1 construct: synthetized by Origene, Met1-Leu525, cat #TP750155; purchased Origene TP750155
T1 sequence (Q06124 1-525): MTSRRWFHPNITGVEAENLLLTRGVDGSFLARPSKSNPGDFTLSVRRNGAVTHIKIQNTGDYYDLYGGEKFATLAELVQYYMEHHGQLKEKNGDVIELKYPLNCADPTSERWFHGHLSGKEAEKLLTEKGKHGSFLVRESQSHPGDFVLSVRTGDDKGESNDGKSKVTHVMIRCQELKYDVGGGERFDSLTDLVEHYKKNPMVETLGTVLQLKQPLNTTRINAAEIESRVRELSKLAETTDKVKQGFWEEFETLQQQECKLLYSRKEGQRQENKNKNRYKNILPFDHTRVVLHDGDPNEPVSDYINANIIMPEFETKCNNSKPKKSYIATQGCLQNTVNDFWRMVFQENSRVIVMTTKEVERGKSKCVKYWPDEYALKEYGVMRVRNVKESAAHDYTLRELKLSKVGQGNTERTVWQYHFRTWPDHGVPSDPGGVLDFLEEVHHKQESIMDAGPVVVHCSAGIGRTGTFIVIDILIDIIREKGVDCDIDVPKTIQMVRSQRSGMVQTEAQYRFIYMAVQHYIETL
The test is described as follows: SHP2 inhibition enzymatic assay. The test is classed as biochemical. Conditions: 0.5 nM SHP-2 activated by 500 nM IRS1 peptide, 75 μM DiFMUP substrate. Here is the method:
The assay was performed as described in YP Chen et al, Nature (535) 2016. Assay volume of 20 μL/well was assembled in 384 well black polystyrene low-binding microplates (Greiner), using the following buffer: 60 mM HEPES pH 7.2, 75 mM NaCl, 75 mM KCl, 1 mM EDTA pH 8, 0.05% tween-20, 5 mM DTT. The SHP-2 enzyme (synthetized by Origene, Met1-Leu525, cat #TP750155) was used at a final concentration of 0.5 nM. The enzyme was activated by 500 nM IRS1 peptide (sequence: H2N-LN(pY)IDLDLV(dPEG8)LST(pY)ASINFQK-amide; Wang et al., iScience 25,104009, Apr. 15, 2022, https://doi.org/10.1016/j.isci.2022.104009) and incubated with 75 μM DiFMUP (Sigma) as substrate.
Briefly, DMSO serially diluted testing compounds were transferred to the bottom of the assay plate. SHP2 was then added together with the IRS1 peptide 30 min post incubation, the DiFMUP substrate was added to the reaction and incubated 30 min at rt. Finally 5 μL of 160 μM bpV (potassium bisperoxo[1,10-phenanthroline]oxovanadate [V], Sigma) were added to stop and quench the reaction. The fluorescence was detected by a microplate reader (Envision, PerkinElmer) according to the DiFMUP excitation and emission wavelength. The lower the fluorescence the higher the SHP2 inhibition.
The activity of each compound dilution was calculated as percentage of inhibition between vehicle (DMSO, 0% inhibition) and no enzyme (100% inhibition). The percentage inhibition is fitted against the compound dilutions with a four-parameter logistic regression. The inflection point (i.e. the concentration at which half-maximal inhibition is achieved) is the IC50.
Legend: A indicates IC50 less or equal to 0.05 μM; B indicates IC50 greater than 0.05 μM and lower or equal to 0.3 μM.

For test [2], the system named is phospho-ERK1/2 (Thr202/Tyr204). As to the kind of experiment: Phospho-ERK cellular assay. The test is classed as cell-based. The following applies: Homo sapiens; KYSE-520 cells, 2 h at 37° C, TR-FRET; read-out: pERK IC50. Here is the method: ERK phosphorylation was detected using the “Advanced phospho-ERK1/2 (Thr202/Tyr204)” TR-FRET kit (Cisbio, Cat #64AERPEG/H), following the manufacturer reagents and instructions.
Briefly, 20.000/well KYSE-520 cells (DSMZ ACC 371) were plated in 6 μL RPMI-1640 (Invitrogen) growth medium, into 384 white low-volume high base TC microplates (Greiner). After an overnight incubation, cells were treated with DMSO serial diluted compounds and incubated for 2 h at 37° C. After incubation, 2 μL/well of 4×Lysis Buffer (Cisbio 64KL1FDF), were added and incubated with cells for 30 min on gentle shaking. Finally, lysates were added with 2 μL/well of Eu cryptate (donor) and D2 (acceptor) conjugated antibodies (as provided by the Cisbio kit #64AERPEG/H) diluted 1:100 in Detection Buffer (as provided by the Cisbio kit #64AERPEG/H). Plates were then sealed and incubated at rt in the dark. After an overnight incubation, the TR-FRET signal was detected on a suitable reader (Envision, PerkinElmer).
The lower the TR-FRET signal the higher the higher the SHP2 inhibition in cells.
The activity of each compound dilution was calculated as percentage between vehicle DMSO treated cells and no cells, 0% inhibition and 100% inhibition respectively. The percentage activity is fitted against the compound dilutions with a four-parameter logistic regression. The inflection point (i.e. the concentration at which half-maximal inhibition is achieved) is the IC50.
Legend: “+” indicates IC50 equal or higher than 0.5 μM; “++” indicates IC50 less than 0.5 μM and higher or equal to 0.1 μM; “+++” indicates IC50 less than 0.1 μM.

Consider `Cc1ccc(F)c(-c2ncc3c(N4CCC5(CC4)Cn4nccc4[C@H]5N)nccn23)c1Cl` [Example 16, (S)-1-(3-(2-chloro-6-fluoro-3-methylphenyl)imidazo[1,5-a]pyrazin-8-yl)-4′H,6′H-spiro[piperidine-4,5′-pyrrolo[1,2-b]pyrazol]-4′-amine], for which the figures for the IC50 in test [1] and in test [2] were 50 to 300 nM and more than 500 nM, respectively.

`Cc1nc(N2CCC3(CC2)Cn2nccc2[C@H]3N)cnc1Sc1ccnc(C)c1F` [Example 4, (S)-1-(5-((3-fluoro-2-methylpyridin-4-yl)thio)-6-methylpyrazin-2-yl)-4′H,6′H-spiro[piperidine-4,5′-pyrrolo[1,2-b]pyrazol]-4′-amine]: the IC50 in test [1] is not above 50 nM; in test [2], 100 to 500 nM.

Consider `N[C@@H]1c2ccnn2CC12CCN(c1cnc(Sc3cccc4c3CCC4)cn1)CC2` [Example 46, (S)-1-(5-((2,3-dihydro-1H-inden-4-yl)thio)pyrazin-2-yl)-4′H,6′H-spiro[piperidine-4,5′-pyrrolo[1,2-b]pyrazol]-4′-amine], for which the IC50 in test [1] is not above 50 nM; in test [2], less than 100 nM.

For the molecule `Cc1nc(Sc2cccc(Cl)c2Cl)cnc1N1CCC2(CC1)Cn1nccc1[C@H]2N` [Example 17, (S)-1-(5-((2,3-dichlorophenyl)thio)-3-methylpyrazin-2-yl)-4′H,6′H-spiro[piperidine-4,5′-pyrrolo[1,2-b]pyrazol]-4′-amine], the figures for the IC50 in test [1] and in test [2] were not above 50 nM and 100 to 500 nM, respectively.

On to `N[C@@H]1c2ccnn2CC12CCN(c1cnc(Sc3ccc(C(F)(F)F)cc3)cn1)CC2` [Example 19, (S)-1-(5-((4-(trifluoromethyl)phenyl)thio)pyrazin-2-yl)-4′H,6′H-spiro[piperidine-4,5′-pyrrolo[1,2-b]pyrazol]-4′-amine], for which the IC50 in test [1] was not above 50 nM; in test [2] it was 100 to 500 nM.

In the case of `N[C@@H]1c2ccnn2CC12CCN(c1cnc(Sc3ccc(OC(F)(F)F)cc3)cn1)CC2` [Example 18, (S)-1-(5-((4-(trifluoromethoxy)phenyl)thio)pyrazin-2-yl)-4′H,6′H-spiro[piperidine-4,5′-pyrrolo[1,2-b]pyrazol]-4′-amine], the figures for the IC50 in test [1] and in test [2] were not above 50 nM and 100 to 500 nM, respectively.

`N[C@@H]1c2ccnn2CC12CCN(c1nccn3c(-c4cccc(F)c4Cl)ncc13)CC2` [Example 14, (S)-1-(3-(2-chloro-3-fluorophenyl)imidazo[1,5-a]pyrazin-8-yl)-4′H,6′H-spiro[piperidine-4,5′-pyrrolo[1,2-b]pyrazol]-4′-amine]: the figures for the IC50 in test [1] and in test [2] were not above 50 nM and 100 to 500 nM, respectively.

For the molecule `N[C@@H]1c2ccnn2CC12CCN(c1cnc(Sc3cccc(C4CC4)c3F)cn1)CC2` [Example 69, (S)-1-(5-((3-cyclopropyl-2-fluorophenyl)thio)pyrazin-2-yl)-4′H,6′H-spiro[piperidine-4,5′-pyrrolo[1,2-b]pyrazol]-4′-amine], the IC50 is not above 50 nM in test [1] and less than 100 nM in test [2].

Take `N[C@@H]1c2ccnn2CC12CCN(c1cnc(Sc3ccc(F)c(F)c3F)cn1)CC2` [Example 49, (S)-1-(5-((2,3,4-trifluorophenyl)thio)pyrazin-2-yl)-4′H,6′H-spiro[piperidine-4,5′-pyrrolo[1,2-b]pyrazol]-4′-amine]: the IC50 was not above 50 nM in test [1] and less than 100 nM in test [2].

Regarding `N[C@@H]1c2ccnn2CC12CCN(c1cnc(Sc3ccccc3C(F)F)cn1)CC2` [Example 72, (S)-1-(5-((2-(difluoromethyl)phenyl)thio)pyrazin-2-yl)-4′H,6′H-spiro[piperidine-4,5′-pyrrolo[1,2-b]pyrazol]-4′-amine], the IC50 in test [1] was not above 50 nM; in test [2] it was less than 100 nM.

As for `N[C@@H]1c2ccnn2CC12CCN(c1cnc(Sc3cccc(F)c3F)cn1)CC2` [Example 53, (S)-1-(5-((2,3-difluorophenyl)thio)pyrazin-2-yl)-4′H,6′H-spiro[piperidine-4,5′-pyrrolo[1,2-b]pyrazol]-4′-amine], the IC50 in test [1] was not above 50 nM; in test [2] it was less than 100 nM.

In the case of `N[C@@H]1c2ccnn2CC12CCN(c1cnc(Sc3cccc4c3CCO4)cn1)CC2` [Example 38, (S)-1-(5-((2,3-dihydrobenzofuran-4-yl)thio)pyrazin-2-yl)-4′H,6′H-spiro[piperidine-4,5′-pyrrolo[1,2-b]pyrazol]-4′-amine], the figures for the IC50 in test [1] and in test [2] were not above 50 nM and 100 to 500 nM, respectively.

Regarding `N[C@@H]1c2ccnn2CC12CCN(c1cnc(Oc3ccccc3F)cn1)CC2` [Example 78, (S)-1-(5-(2-fluorophenoxy)pyrazin-2-yl)-4′H,6′H-spiro[piperidine-4,5′-pyrrolo[1,2-b]pyrazol]-4′-amine], the IC50 is not above 50 nM in test [1] and 100 to 500 nM in test [2].

With `N[C@@H]1c2ccnn2CC12CCN(c1cnc(Sc3cccc(Cl)c3)cn1)CC2` [Example 20, (S)-1-(5-((3-chlorophenyl)thio)pyrazin-2-yl)-4′H,6′H-spiro[piperidine-4,5′-pyrrolo[1,2-b]pyrazol]-4′-amine], the IC50 in test [1] is not above 50 nM; in test [2] it was less than 100 nM.

As for `N[C@@H]1c2ccnn2CC12CCN(c1cnc(Sc3cccc(F)c3-n3cccn3)cn1)CC2` [Example 80, (S)-1-(5-((3-fluoro-2-(1H-pyrazol-1-yl)phenyl)thio)pyrazin-2-yl)-4′H,6′H-spiro[piperidine-4,5′-pyrrolo[1,2-b]pyrazol]-4′-amine], the IC50 was not above 50 nM in test [1] and 100 to 500 nM in test [2].

Turning to `N[C@@H]1c2ccnn2CC12CCN(c1cnc(Sc3cccc(F)c3C(F)F)cn1)CC2` [Example 71, (S)-1-(5-((2-(difluoromethyl)-3-fluorophenyl)thio)pyrazin-2-yl)-4′H,6′H-spiro[piperidine-4,5′-pyrrolo[1,2-b]pyrazol]-4′-amine], the IC50 was not above 50 nM in test [1] and less than 100 nM in test [2].

`Cc1c(F)cccc1Sc1cnc(N2CCC3(CC2)Cn2nccc2[C@H]3N)cn1` [Example 57, (S)-1-(5-((3-fluoro-2-methylphenyl)thio)pyrazin-2-yl)-4′H,6′H-spiro[piperidine-4,5′-pyrrolo[1,2-b]pyrazol]-4′-amine]: the results for the IC50 in test [1] and in test [2] were not above 50 nM and less than 100 nM, respectively.

Consider `N[C@@H]1c2ccnn2CC12CCN(c1cnc(Sc3ccc(C(F)(F)F)c4ncccc34)cn1)CC2` [Example 67, (S)-1-(5-((8-(trifluoromethyl)quinolin-5-yl)thio)pyrazin-2-yl)-4′H,6′H-spiro[piperidine-4,5′-pyrrolo[1,2-b]pyrazol]-4′-amine], for which the IC50 is not above 50 nM in test [1] and less than 100 nM in test [2].
